Values joined by “and” are separate entries in the source; they are usually repeats but may differ in a detail not shown here. Equal values may be shown once.
How the values were obtained:
[1] = rat, cited from earlier work
[2] = test system: rat atrioventricular node; test: Atrioventricular block experiment by PDT in in vivo system; set-up: species or system Wistar rat
Description: Wistar rats (male, 8 weeks old) were anesthetized by inhalation of diethyl ether, four limbs and front teeth were fixed, a tube was inserted into the bronchial tube, and an artificial ventilator (Natsume Seisakusho Co., Ltd.) and a forane vaporizer anesthesia apparatus (Shinano Instrument, Co., Ltd.) were introduced into the body. Thoracotomy was performed between the right chest rib, and the experiment was performed while the heart was exposed.
A solution obtained by dissolving Laserphyrin in 5 ml of physiological saline was administered to venous blood from the right ventricular cavity. The photosensitizer dose (D) and the interval to photoradiation in each experiment were as follows.
Experiment 1: D=2 mg/kg, laser irradiation at interval of 5 and 60 min
Experiment 2: D=10 mg/kg, laser irradiation at interval of 2 and 30 min
A semiconductor laser beam (SONY, wavelength peak, 670 nm band) was transmitted using a quartz fiber with a laser intensity of 500 mW/cm^2 at the end. The end was attached to a portion in the vicinity of the base of the aorta, and photoradiation was performed towards the atrioventricular node (existing in a portion approx. 3 mm deep from the surface) in the right atrial inner wall for 10 min with the total dose of laser irradiation of 300 J/cm^2 (FIG. 30).
A needle electrode was inserted into four limbs of a rat, electrocardiogram leads I, II, and III were induced with an electrocardiograph (Nihon Kohden Corporation), and signals were recorded using a biosignal recording/analyzing apparatus and analyzed (FIG. 31). FIG. 31 is a schematic view showing an in vivo experimental system.
After completion of the experiment, the rat chest was closed and sutured. Then, a normal feed and water were given and allowed to survive, and anesthetized again at approx. 2 weeks so that electrocardiography should be performed.
The heart sample of Experiment 1 was isolated after electrocardiography at 2 weeks (the isolation method was the same as in Example 6), 4% paraformaldehyde was introduced from the coronary artery, and the perfusion-fixed sample was immersed in approx. 40 ml of the solution and left on a mix roller overnight. Then, a HE sample and an Azan stained specimen at a laser irradiation site were prepared and observed under a microscope.

[3] = in vivo; conditions: rat, half-life of photosensitizer concentration in the heart
Description: FIG. 46 is a graph showing changes in the photosensitizer concentration in the rat heart at doses of 5 and 2 mg/kg together with changes in plasma concentration in rats and humans.

[4] = test system: cultured cardiac muscle cells derived from an SD rat; test: Changes in intracellular Ca^2+ concentration during PDT (Fluo-4AM); type: cell-based
Description: Intracellular Ca^2+ concentration changes in cells on day 1 after seeding were measured with the four protocols described later. Cultured cardiac muscle cells derived from an SD rat were used. As a medium for cell culture, D-MEM/F12+10% FBS was used. Before subjected to the experiment, cardiac muscle cells in suspension at 1.6×10^5 cells/ml were seeded on a 24-well plate with a glass bottom at 0.5 ml/well (8.0×10^4 cells/well) and cultured in an incubator (37° C., 5% CO2) for one day.
Further, MEM+10% FBS containing 2.2 mM Ca^2+ was used as a normal medium, and SMEM+10% FBS containing 364 μM Ca^2+ was used as a Ca^2+-free medium.
Intracellular Ca^2+ concentrations were measured using Fluo-4AM (Molecular Probe). 55 μl of DMSO (Dojindo Laboratories, pure solvent for fluorescence analysis) was added to 50 μg of Fluo-4AM, 10 μl of this mixture was added to 1 ml of a medium for measurement (normal medium or Ca^2+-free medium) at 8 μM, and cardiac muscle cells were brought into loading for 30 min. Fluo4 was excited with Ar laser (wavelength, 488 nm), and a fluorescence image at 510 to 560 nm was obtained with a CCD camera (Nippon Roper Co., Ltd., Retiga 2000R). 10 photos were taken with an exposure time of 10 s, and then PDT was performed by irradiation with a semiconductor laser beam (peak wavelength, 670.8 nm; power, 150 mW/cm^2; continuous light; total energy density, 5 or 10 J/cm^2), and a total of 40 photos (for approx. 408 s) were continuously taken during and after PDT. The image analysis was performed using Image J, an image analysis software, and changes in intracellular cumulative fluorescence on each slide were calculated. Assuming the initial cumulative fluorescence F0 as 1, fluorescence changes were calculated by F/F0. Further, cells were incubated at temperature of 37° C. using a hot plate (Tokai Hit) during observation.
Protocol 1 (Extracellular Distribution of Talaporfin Sodium, Extracellular Normal Ca^2+ Concentration)
(§1) Fluo-4AM (normal medium solution) is loaded with each well at room temperature for 30 min, then talaporfin sodium (normal medium) adjusted beforehand to various concentrations is added at 0.5 ml/well, and observation is performed immediately after addition.
Protocol 2 (Intracellular Distribution of Talaporfin Sodium, Extracellular Normal Ca^2+ Concentration)
as §1, with “performed” for “performed immediately”, “the medium is replaced with a normal medium after 30 min of loading.” for “addition.”
Protocol 3 (Extracellular Distribution of Talaporfin Sodium, No Extracellular Ca^2+) […]

[5] = Experiment 2: 10 mg/kg, 300 J/cm^2
[6] = Experiment 2: 10 mg/kg, interval 30 min, 300 J/cm^2

Structure (SMILES): C=Cc1c(C)c2cc3nc(c(CC(=O)N[C@@H](CC(=O)O)C(=O)O)c4[nH]c(cc5nc(cc1[nH]2)C(C)=C5CC)c(C)c4C(=O)O)[C@@H](CCC(=O)O)[C@@H]3C [talaporfin sodium, mono-L-aspartyl chlorine 6]
- average of the half-lives in plasma from 2 to 24 h ([1]; after intravenous injection): 9.6 h
- average of the half-lives in plasma from 2 to 60 min ([1]; intravenous injection 10 mg/kg): 47 min
- electrocardiogram after 2 weeks ([2]; Experiment 1: 2 mg/kg, 300 J/cm^2): the 2:1 atrioventricular block disappeared, and a normal atrioventricular conduction was confirmed
- histology (Azan stain) at laser irradiation site at 2 weeks ([2]; Experiment 1: 2 mg/kg, 300 J/cm^2, FIG. 36): a scar tissue (a damaged cellular tissue was replaced with the surrounding collagenic fibers) is observed
- atrioventricular block (electrocardiogram) ([2]; Experiment 1: 2 mg/kg, interval 5 min, 300 J/cm^2): an atrioventricular block disappeared during the process of photoradiation
- atrioventricular block (electrocardiogram) after photoradiation ([2]; Experiment 1: 2 mg/kg, interval 60 min, 300 J/cm^2): 2:1 atrioventricular block
- completeness of conduction block ([2]; Experiment 1, laser irradiation dose 300 J/cm^2): the conduction block was incomplete
- electrocardiogram at 2 weeks [2, 5]: a finding of a complete atrioventricular block
- time the conduction block effect by PDT was maintained [2, 5]: 2 weeks
- atrioventricular block (electrocardiogram) ([2]; Experiment 2: 10 mg/kg, interval 2 min, 300 J/cm^2): a 2:1 atrioventricular block occurred, but was resolved thereafter
- atrioventricular block (electrocardiogram) [2, 6]: a 2:1 atrioventricular block and a complete atrioventricular block occurred from immediately after photoradiation
- electrocardiogram finding after completion of photoradiation [2, 6]: extrasystoles of the ventricle were observed
- half-life ([3]; 0 to 60 min): 1.08 h
- half-life ([3]; later phase): 13.3 h
- cell morphology during and after PDT ([4]; FIG. 23): 1) swelling of the cell itself and 2) growth of “bobble” were observed and Cell morphology did not virtually change after PDT
- change in intracellular Ca^2+ concentration during PDT ([4]; no extracellular Ca^2+, 30 μg/ml, 10 J/cm2): the intracellular Ca^2+ concentrations hardly changed
- change in intracellular Ca^2+ concentration during PDT ([4]; normal extracellular Ca^2+ concentration): Rapid increases in the intracellular Ca^2+ concentrations were observed immediately after performing PDT
- change in intracellular Ca^2+ concentration, photosensitizer outside vs inside the cell ([4]; normal extracellular Ca^2+, 0 min loading vs 30 min loading): rapid changes in the Ca^2+ concentration were confirmed when the photosensitizer exists only outside the cell
